Experimental data as given in patent publication US20100234351A1, “FUSED NITROGEN-COMPRISING HETEROCYCLIC COMPOUND” (TAKEDA PHARMACEUTICAL COMPANY LIMITED, priority 2006, published 2010).
Where a name gives a salt, the structure may show the parent alone.

How the values were obtained:
[1] = test system: human breast cancer cell BT-474; experiment: Inhibitory action on breast cancer cell BT-474 proliferation in vitro; format: cell-based; settings: 120 h, BT-474 cells, cultured 5 days with compound, SRB staining of cell protein
Method: A suspension of human breast cancer cell BT-474 (100 μl (6,000 cells)) were plated to 96-well microplate and cultured in an incubator (37° C., 5% carbon dioxide). On the following day, 100 μl of a solution of each test compound previously diluted serially in 2-fold, was added to give indicated dose, and the cells were cultured for 5 days. The culture medium containing the test compound was removed, and the cells were washed, and fixed with 50% trichloroacetic acid, and 0.4% w/v) SRB solution (dissolved in 1% acetic acid) was added to stain the cell protein (Skehan et al., Journal of the National Cancer Institute, Vol. 82, pp. 1107-1112, 1990). After washing with a 1% acetic acid solution, 100 μl of Tris solution (10 mM) was added to extract the pigment and the absorbance was measured at a wavelength of 550 nm to quantify the amount of cells as protein content. Taking as 100% the protein content for the control group, which received no test compound solution, the ratio of the residual protein content for each treatment group was determined, and the compound concentration required to achieve 50% suppression of the residual cell content relative to the control (IC50 value) was calculated.

[2] = target: T1, HER2 intracellular domain (Homo sapiens, UniProt P04626); experiment: Measurement of HER2 kinase inhibitory activity; format: biochemical; settings: compound 1.0 μM, poly-Glu:Tyr (4:1) substrate, [γ-32P]ATP, read-out: Inhibitory rate (%) at 1.0 μM
T1 construct: made in house; host or cells: SF-21 insect cells infected with recombinant baculovirus BAC-HER2
T1 sequence (P04626 676-1255): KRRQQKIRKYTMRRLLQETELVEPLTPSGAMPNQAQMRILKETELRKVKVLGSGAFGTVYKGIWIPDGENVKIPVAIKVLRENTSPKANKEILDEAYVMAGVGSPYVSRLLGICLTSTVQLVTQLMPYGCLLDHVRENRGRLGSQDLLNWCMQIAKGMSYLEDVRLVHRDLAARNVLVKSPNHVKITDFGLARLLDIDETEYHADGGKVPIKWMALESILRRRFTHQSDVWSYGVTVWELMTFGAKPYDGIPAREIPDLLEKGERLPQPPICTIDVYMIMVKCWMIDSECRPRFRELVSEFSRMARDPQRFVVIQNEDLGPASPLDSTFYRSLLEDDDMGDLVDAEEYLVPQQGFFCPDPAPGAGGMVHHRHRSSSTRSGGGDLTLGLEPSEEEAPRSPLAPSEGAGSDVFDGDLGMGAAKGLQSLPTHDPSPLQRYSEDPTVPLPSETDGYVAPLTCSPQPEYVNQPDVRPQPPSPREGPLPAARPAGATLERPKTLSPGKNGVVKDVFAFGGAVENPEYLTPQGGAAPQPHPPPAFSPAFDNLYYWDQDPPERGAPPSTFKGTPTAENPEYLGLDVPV
Method: Human HER2 gene was cloned by RT-PCR using total RNA prepared from MCF7 cells as a template. The primer used for RT-PCR was prepared from base sequence (Genbank Accession No. M11730) information of HER2 gene, adding base sequence encoding DYKDDDD peptide and a restriction enzyme recognition sequence to a nucleotide sequence (2176-3918 of Genbank Accession No. M11730 as a base, and corresponding to 676-1255 amino acid of Genbank Accession No. NP_004439 as a protein) encoding the HER2 intracellular domain region, so that a DYKDDDD peptide tag would be attached to the N-terminus of the protein. The base sequence of the primer is shown in below.
The RT reaction was performed using Superscript First-Strand Synthesis System for RT-PCR (Invitrogen) and the PCR reaction was performed using KOD-plus kit (TOYOBO). The obtained PCR product was electrophoresed on agarose gel (1%), and the DNA fragment amplified by PCR was recovered from the gel, and then digested with restriction enzymes Sal I and Sph I. The DNA treated with the restriction enzymes was electrophoresed on agarose gel (1%), and the obtained DNA fragment was recovered and ligated to plasmid pFASTBAC1 (Invitrogen) digested with restriction enzymes Sal I and Sph I to give expression plasmid pFB-HER2. The base sequence of the inserted fragment was confirmed and found to be identical with the base sequence of HER2 intracellular domain (2176-3918 of Genbank Accession M11730). Furthermore, using BAC-TO-BAC Baculovirus Expression System (Invitrogen), recombinant baculovirus BAC-HER2 was prepared.
SF-21 cells were sown at 1×10^6 cells/mL to 1 L of Sf-900II SFM medium (Invitrogen) containing 10% fetal calf serum (trace), 50 mg/L gentamicin (Invitrogen) and 0.1% Pluronic F-68 (Invitrogen), and cultured with shaking in 2 L volume Erlenmeyer flask at 27° C., 100 rpm. After culturing for 24 hr, recombinant baculovirus BAC-HER2 (13.4 mL) was added thereto, and the cells were further cultured for 3 days. The culture medium was centrifuged at 2,000 rpm for 5 min to give virus-infected cells. The infected cells were washed with phosphate buffered saline (Invitrogen), centrifuged under the same conditions, and preserved at −80° C. The cryopreserved cells were thawed in ice and suspended in buffer A (50 mM Tris buffer (30 mL, pH 7.4) containing 20% glycerol, 0.15 M NaCl) supplemented with Complete Protease Inhibitor (Boehringer). The cells were ruptured 3 times with a Polytron homogenizer (Kinematica) at 20,000 rpm for 30 sec. The disrupt was clarified by centrifugation at 40,000 rpm for 30 min and filtered with a 0.45 μm filter. The filtrate was passed through a column packed with Anti-FLAG M2 Affinity Gel (4 mL, Sigma Aldrich CO.) at a flow rate of about 0.5 mL/min. The column was washed with buffer A, and eluted with buffer A containing 100 μg/mL of FLAG peptide. The eluate was concentrated with Vivaspin 20 (Vivascience) having a molecular weight cut off of 30K. The concentrate was purified by gel filtration using Hi-Load 16/60 Superdex 200pg (GE Healthcare Bioscience) equilibrated with buffer A. The fractions containing HER2 intracellular domain were collected and cryopreserved at −80° C.
HER2 kinase reaction was carried out using 96-well plate. As a buffer for Kinase reaction, a buffer of a composition of 50 mM Tris-HCl (pH 7.5), 5 mM MnCl2, 2 mM dithiothreitol and 0.01% Tween-20 was used. The compound of the present invention was dissolved in dimethyl sulfoxide (DMSO), and diluted with a buffer for kinase reaction so that the DMSO concentration would become 0.1% during kinase reaction. The compound solution (10 μL) was mixed with a buffer for kinase reaction (20 μL) containing the HER2 intracellular domain (0.625 μg/mL) obtained in Experimental Example 1B and a polypeptide substrate poly-Glu:Tyr (4:1) (12.5 μg/mL, Sigma Ltd.) and the mixture was stood for 5 min at room temperature. […]

[3] = target: T2, EGFR intracellular domain (Homo sapiens, UniProt P00533); experiment: Assay of EGFR kinase inhibitory activity; format: biochemical; settings: compound 1.0 μM, poly-Glu:Tyr (4:1) substrate, [γ-32P]ATP, read-out: Inhibitory rate (%) at 1.0 μM
T2 construct: made in house; host or cells: SF-21 insect cells infected with recombinant baculovirus BAC-EGFR
T2 sequence (P00533 669-1210): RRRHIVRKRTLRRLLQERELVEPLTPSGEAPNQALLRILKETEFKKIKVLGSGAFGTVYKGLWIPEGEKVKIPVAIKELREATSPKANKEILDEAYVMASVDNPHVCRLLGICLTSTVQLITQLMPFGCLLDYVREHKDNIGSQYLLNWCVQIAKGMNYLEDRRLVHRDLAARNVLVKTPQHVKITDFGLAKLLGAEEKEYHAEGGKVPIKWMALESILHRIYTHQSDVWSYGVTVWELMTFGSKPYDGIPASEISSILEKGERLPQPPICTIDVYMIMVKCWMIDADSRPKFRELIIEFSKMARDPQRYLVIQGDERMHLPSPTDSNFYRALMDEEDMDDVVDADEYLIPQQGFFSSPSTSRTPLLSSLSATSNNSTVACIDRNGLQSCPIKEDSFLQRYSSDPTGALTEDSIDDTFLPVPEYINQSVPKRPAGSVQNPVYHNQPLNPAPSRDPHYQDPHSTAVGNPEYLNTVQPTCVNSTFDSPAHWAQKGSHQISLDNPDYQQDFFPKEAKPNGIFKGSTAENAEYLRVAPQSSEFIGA
Method: Human EGFR gene was cloned by RT-PCR using total RNA prepared from A431 cell as a template. The primer used for RT-PCR was prepared from base sequence (Genbank Accession No. X00588) information of EGFR gene, adding DYKDDDD base sequence encoding the peptide and a restriction enzyme recognition sequence to a base sequence (2191-3819 of Genbank Accession No. X00588 as a base, and corresponding to 669-1210 amino acid of Genbank Accession No. NP_005219 as a protein) encoding the EGFR intracellular domain, so that a DYKDDDD peptide tag would be attached to the N-terminus of the protein. The base sequence of the primer is shown in below.
The RT reaction was performed using Superscript First-Strand Synthesis System for RT-PCR (Invitrogen), and PCR reaction was performed using KOD-plus kit (TOYOBO). The obtained PCR product was electrophoresed on agarose gel (1%), and the DNA fragment amplified by PCR was recovered from the gel, and then digested with restriction enzymes Sal I and Sph I. The DNA treated with the restriction enzymes was electrophoresed on agarose gel (1%), and the obtained DNA fragment was recovered and ligated to plasmid pFASTBAC1 (Invitrogen) digested with restriction enzymes Sal I and Sph I to give expression plasmid pFB-EGFR. The base sequence of the inserted fragment was confirmed and found to be identical with the base sequence of the EGFR intracellular domain (2191-3819 of Genbank Accession X00588). Furthermore, virus stock BAG-EGFR of recombinant Baculovirus was prepared using BAC-TO-BAC Baculovirus Expression System (Invitrogen).
SF-21 cells were sown at 1×10^6 cells/mL to 1 L of Sf-900II SFM medium (Invitrogen) containing 10% fetal calf serum (trace), 50 mg/L Gentamicin (Invitrogen) and 0.1% Pluronic F-68 (Invitrogen), and cultured with shaking in a 2 L Erlenmeyer flask at 27° C., 100 rpm. After culture for 24 hr, recombinant Baculovirus BAC-EGFR (13.4 mL) was added thereto, and the cells were further cultured for 3 days. The culture medium was centrifuged at 2,000 rpm for 5 min to give virus infected cells. The infected cells were washed with phosphate buffered saline (Invitrogen), centrifuged under the same conditions, and preserved at −80° C. The cryopreserved cells were thawed in ice and suspended in 30 mL of buffer A containing Complete Protease Inhibitor (Boehringer) (50 mM tris buffer (pH 7.4) containing 20% Glycerol, 0.15 M NaCl). The cells were disrupted 3 times at 20,000 rpm for 30 sec using a polytron homogenizer (Kinematica). The disrupt was clarified by centrifugation at 40,000 rpm for 30 min and filtered through a 0.45 μm filter. The filtrate was passed through a column packed with 4 mL of Anti-FLAG M2 Affinity Gel (Sigma Aldrich Co.) at a flow rate of about 0.5 mL/min. The column was washed with buffer A, and eluted with buffer A containing 100 μg/mL of FLAG peptide. The eluate was concentrated with Vivaspin 20 having a molecular weight cut off of 30 K (Vivascience). The concentrate was purified by gel filtration using Hi-Load 16/60 Superdex 200 pg (GE Healthcare Bioscience) equilibrated with buffer A. The fractions containing EGFR intracellular domain were collected and cryopreserved at −80° C.
EGFR kinase reaction was carried out using a 96-well plate. As a buffer for Kinase reaction, a buffer of a composition of 50 mM Tris-HCl (pH 7.5), 5 mM MnCl2, 2 mM dithiothreitol and 0.01% Tween-20 was used. […]

Compound | IC50 [1] | inhibition at 1 µM [2] | inhibition at 1 µM [3]
COCCOCCNC(=O)C1=Cc2c(ncnc2Nc2ccc(Oc3cccc(C(F)(F)F)c3)c(Cl)c2)NCC1 [Example 122, 4-({3-chloro-4-[3-(trifluoromethyl)phenoxy]phenyl}amino)-N-[2-(2-methoxyethoxy)ethyl]-8,9-dihydro-7H-pyrimido[4,5-b]azepine-6-carboxamide] | < 0.1 µM | 96% | –
O=C(NCCOCCO)C1=Cc2c(ncnc2Nc2ccc(Oc3cccc(C(F)(F)F)c3)c(Cl)c2)NCC1 [Example 119, 4-({3-chloro-4-[3-(trifluoromethyl)phenoxy]phenyl}amino)-N-[2-(2-hydroxyethoxy)ethyl]-8,9-dihydro-7H-pyrimido[4,5-b]azepine-6-carboxamide] | < 0.1 µM | – | 96%
O=C(NCCOCCO)C1=Cc2c(ncnc2Nc2ccc(Oc3cccc(Cl)c3)c(Cl)c2)NCC1 [Example 143, 4-{[3-chloro-4-(3-chlorophenoxy)phenyl]amino}-N-[2-(2-hydroxyethoxy)ethyl]-8,9-dihydro-7H-pyrimido[4,5-b]azepine-6-carboxamide hydrochloride] | < 0.1 µM | – | 97%
